Test results from PMC12648656, “Palladium(II) Complexes with Noncovalent Interactions with DNA: Solution Speciation Controlled by Solvent Identity, pH, and Concentration” (Inorganic Chemistry, 2025).

What was measured:
[1] = molecular target: T1, hen egg white lysozyme (HEWL) (Gallus gallus, UniProt P00698); experiment: Reaction with lysozyme followed by UV-vis at 280 nm, pseudo-first-order kinetics; format: binding; conditions: metal:protein 3:1, 5 mM Tris/3% DMSO, 37 °C, absorbance at 280 nm
T1 construct: a model protein, namely HEWL (hen egg white lysozyme), was also studied; from tissue; host or cells: hen egg white (from the protein's name)
Experimental: The interaction of complexes (2) and (3) with hen egg white lysozyme (HEWL) was investigated using a 10^–5 M solution of the protein. Lysozyme is a widely used model protein for studying the binding of potential metallodrugs. The sample preparation for this assay was carried out using the same protocol of the samples for the DNA interactions studies by UV–vis spectrophotometry. The integrity of the enzyme was checked in each experiment, with a comparison of fresh and incubated samples. UV–vis spectra were recorded before and after incubation with the complex (dissolved in 97% 5 mM Tris/3% DMSO) for 24 h at 37 °C. A metal to protein ratio of 3:1 was used for these studies, a ratio that affords similar results to 10:1 and eases the sample preparation. The experimental time-dependent profiles of the spectra were analyzed as pseudo-first-order reactions by plotting the variation of the absorbance as a function of time.

[2] = n-Octanol/water and n-octanol/Tris buffer shake-flask partitioning; format: physicochemical
Experimental: The distribution coefficient values (D 7.4) of the compounds were determined by the traditional shake-flask method in n-octanol/buffered aqueous solution at pH 7.40 for 5 mM Tris HCl with 0.1 M KCl and at pH 7.4 at 25.0 ± 0.2 °C. The ligand and complexes were dissolved in n-octanol (presaturated by the aqueous buffer) because of the very low aqueous solubility. The aqueous buffer solution and n-octanol ratio was 1:1 due to the expected high lipophilicity of the compounds. First, samples were mixed with vertical rotation (∼20 rpm) for 3 h, and then the two phases were separated by centrifugation at 3000 rpm (∼1000g) for 3 min. After separation, UV–vis spectra of the compounds were recorded in both phases. Spectra of the n-octanol phases were compared to those of the original n-octanol stock solutions.
The distribution coefficient values were also determined using unbuffered water and octanol (also presaturated) with a ratio of 1:1.

calf thymus-DNA (CT-DNA) = experiment: UV-vis titration with CT-DNA; format: binding; conditions: complex/DNA ratio 0 to 0.79; 5 mM Tris, 50 mM NaCl, pH 7.40, 25 °C
Experimental: To investigate the potential binding ability of the palladium complexes (2) and (3) with DNA, UV–vis titrations (240 to 700 nm) were performed at room temperature. During the titrations, the CT-DNA concentration (5.08 × 10^–5 M) was kept constant, while the concentration of each complex (0 to 2.00 × 10^–5 M) was varied. The changes in the typical absorbance of CT-DNA at 260 nm were monitored after equilibration (10 min) and after 1 h of incubation at 37 °C. […] Control experiments with DMSO were performed, and no changes in the CT-DNA spectrum were observed.

glutathione (GSH) = experiment: Reaction with glutathione followed by UV-vis; conditions: 30-fold GSH, ~20 μM complex, 60% (v/v) DMSO/phosphate buffer pH 7.4, 25.0 °C
Experimental: Reactions between the title compounds and GSH were also followed by UV–vis spectrophotometry under an inert atmosphere to overcome oxidation of GSH by air oxygen. Samples contained the metal complexes at low concentrations (∼20 μM) and were prepared using 60% (v/v) DMSO/phosphate buffer solution (pH 7.4) to avoid precipitation. The reactants were separated in the pockets of a tandem cuvette, followed by deoxygenation by argon bubbling. The separate solutions were mixed at 1:30 metal complex:GSH molar ratios, and UV–vis spectra were recorded. Argon was continuously passed over the sample during the whole measurement.

[3] = tested on: Colo 205 human colon cancer cell line; experiment: In vitro cytotoxicity, MTT; format: cell-based; conditions: Colo 205, 72 h exposure
Experimental: (§1) Cell culture reagents were obtained from Merck, and plasticware was obtained from Sarstedt. Human colon adenocarcinoma cell line Colo 205 (ATCC CCL-222) and MCF7 (ATCC HTB-22) breast cancer cells were purchased from LGC Promochem. Cancer cells were cultured in RPMI 1640 medium supplemented with 10% heat-inactivated fetal bovine serum, 2 mM L-glutamine, and 1 mM sodium pyruvate and buffered with 100 mM HEPES. The cells were incubated at 37 °C in a 5% CO2, 95% air atmosphere and were detached with Trypsin-Versene (EDTA) solution for 5 min at 37 °C.
(§2) The tested ligands were dissolved in DMSO, and the stock solutions (5 mM) were diluted in complete culture medium. Two-fold serial dilutions of compounds were made in 100 μL of the medium, horizontally. The semiadherent colon adenocarcinoma cells were treated with Trypsin-Versene (EDTA) solution. They were adjusted to a density of 1 × 10^4 cells in 100 μL of RPMI 1640 medium and were added to each well, with the exception of the medium control wells. The final volume of the wells containing compounds and cells was 200 μL. The plates containing the cells were incubated at 37 °C for 72 h; at the end of the incubation period, 20 μL of MTT solution (5 mg/mL) was added to each well. After incubation at 37 °C for 4 h, 100 μL of sodium dodecyl sulfate solution (10% in 0.01 M HCl) was added to each well, and the plates were further incubated at 37 °C overnight. Cell growth was determined by measuring the optical density (OD) at 540 and 630 nm with a Multiskan EX plate reader (Thermo Labsystems).
(§3) Curves for the data obtained on cancer cells were fitted by GraphPad Prism software using the sigmoidal dose–response model (comparing variable and fixed slopes). The IC50 values were always obtained from at least three independent experiments.

[4] = tested on: MCF7 human breast cancer cell line; experiment: In vitro cytotoxicity, MTT; format: cell-based; conditions: MCF7, 72 h exposure
Experimental: as §1, §2, §3

[5] = HPLC analysis of aqueous solution integrity; format: physicochemical; conditions: 20 μM in 3% DMSO aqueous solution, after 24 h, 254 nm
Experimental: Prior to the injection to the column, 20 μL was taken and diluted with 180 μL of HPLC-grade acetonitrile at various time points (t = 0 and 24 h). 20 μL of this diluted sample was injected in the Zorbax Eclipse Plus C18 column (4.6 × 100 mm, 3.5 μm): flow rate, 1 mL/min; detection, UV 254 nm; flow solvent system A/B (acetonitrile/water, v/v): 70:30 and analyzed with 254 nm radiation up to 10 min.

T1 sequence (P00698 19-147): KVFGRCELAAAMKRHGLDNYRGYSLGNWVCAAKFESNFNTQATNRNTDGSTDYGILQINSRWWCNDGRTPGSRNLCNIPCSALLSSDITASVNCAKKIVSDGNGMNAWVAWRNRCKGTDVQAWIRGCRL

## Clc1ccc(N=C2N[N+](=Cc3c[nH]cn3)[Pd-2]3([S]C(Nc4ccc(Cl)cc4)=N[N+]3=Cc3c[nH]cn3)[S]2)cc1 (centres unmarked) [(2), Bis(1H-imidazole-4-carboxaldehyde-4N-p-chlorophenylthiosemicarbazonato)palladium(II)]
[1]
  observed rate constant k obs: (8.83 ± 0.05) × 10^–5 s^–1
[2]; n-octanol/5 mM Tris HCl with 0.1 M KCl, pH 7.40, 25.0 °C
  log D o/t: +2.32 ± 0.16
[2]; n-octanol/pure (unbuffered) water, 1:1
  log D o/w: +1.70 ± 0.06
Calf thymus-DNA (CT-DNA)
  change of CT-DNA absorption at 260 nm: absorption values of DNA–complex samples increase
Glutathione (GSH)
  time to equilibrium of the reaction with GSH: ≤ 30 min
[3]
  IC50: 11.8 ± 0.35 µM
[4]
  IC50: 1.55 ± 0.03 µM
[5]
  integral of the HPLC signal of intact complex: only slightly diminished
